Measurements from US20160175412A1, “PREVENTION OF TYPE 1 DIABETES BY TREG VACCINATION WITH AN INSULIN MIMETOPE” (DANA-FARBER CANCER INSTITUTE, INC., priority 2010, published 2016).
Where no end group is shown, it is not given here.

What was measured:
[1] = system: HA(107-119) TCR transgenic Foxp3GFP-reporter T cells; assay: in vivo HA-specific Treg conversion, congenic adoptive-transfer system; set-up: species or system mouse; settings: injection of mTOR-inhibitor
Method: (b) In vivo conversion of naïve CD4+CD25-T cells expressing a transgenic TCR of interest into Treg cells using a congenic transfer system. HA(107-119)TCR transgenic CD4+/Foxp3-/GFP Thy1.1+ cells are transferred iv into a host such as a Balb/c thy1.2+ mouse. A to single dose of a covalent conjugate of […] fusion antibody is administered ip. Analysis of Foxp3 expression in CD4-enriched Thy1.1+ spleenocytes and lymph nodes is conducted after 14 days flow cytometrically.
For the exploitation of antigen-specific Treg induction to interfere with unwanted immunity as diabetes the inventors performed optimization studies in order to achieve stable de novo differentiation of naive T cells into Tregs in sufficient numbers. Therefore we aimed at using combinations of compounds that enhance conversion, selectively expand the generated Tregs and allow for maintenance of the Treg phenotype. […] To induce rapid expansion of these Tregs the inventors injected the mice with IL-2 mixed with an optimized amount of a particular IL-2 monoclonal antibody (IL-2/IL-2 ab complexes) for a short period of 3 days at the end of the conversion period. […] Moreover, these Tregs were stable and persisted over a period of 4 months, which is an important feature as it allows for prospective induction to suppress unwanted immune responses.

IAu = molecular target: T1, IAu (Mus musculus, UniProt P06344+P14438); settings: presented by IAu; cited from earlier work
T1 sequence (P14438 1-227): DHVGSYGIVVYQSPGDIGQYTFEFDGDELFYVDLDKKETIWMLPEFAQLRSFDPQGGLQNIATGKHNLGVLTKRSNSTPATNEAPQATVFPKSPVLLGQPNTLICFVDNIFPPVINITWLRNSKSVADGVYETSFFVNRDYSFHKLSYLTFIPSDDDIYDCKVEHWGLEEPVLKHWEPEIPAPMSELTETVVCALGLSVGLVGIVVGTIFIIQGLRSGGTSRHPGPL
T1 sequence (P06344 28-263): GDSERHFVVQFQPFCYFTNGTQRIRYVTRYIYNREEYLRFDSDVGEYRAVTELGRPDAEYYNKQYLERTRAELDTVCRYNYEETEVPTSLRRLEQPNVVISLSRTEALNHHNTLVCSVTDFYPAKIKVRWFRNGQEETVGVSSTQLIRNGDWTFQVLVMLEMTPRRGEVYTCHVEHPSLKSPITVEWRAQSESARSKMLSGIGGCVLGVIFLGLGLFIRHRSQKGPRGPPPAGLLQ

IAg^7 [2] = assay: peptide binding to MHC class II IAg7; set-up: species or system mouse; settings: MHC class II IAg^7
Excerpt: The natural Insulin B:9-23 peptide is known to be associated with Type I diabetes. This peptide binds with poor affinity to IAg^7 in multiple binding registers.
Chromogranin A was recently identified as the antigenic source of the highly pathogenic BDC2.5 T cell clone associated with Type I diabetes. WE14 is naturally processed from Chromogranin A by a furin-like protease. […] Studies have shown that this epitope only partially fills the peptide binding groove.
(§1) The inventors performed similar protocols of antigen-specific Treg conversion studies to prevent the development of spontaneous diabetes in NOD mice by injecting DEC205 fusion antibodies that contain the beta chain of insulin. […] The inventors hypothesized that weak epitopes may fail to induce efficient Treg conversion, and we initiated studies using Insulin B:9-23 TCR transgenic mice and identified in T cell proliferation assays insulin mimetopes that stimulate better than the Insulin B:9-23 peptide itself because of an increased binding capacity to MHC class II IAg^7, compared to the aforementioned Insulin B:9-23 peptide. In fact such mimetopes achieved better conversion of naive T cells expressing the transgenic TCR. […]

NOD InsB:9-23 Tg T cells = assay: thymidine incorporation T cell proliferation assay; assay type: cell-based, mouse; settings: Insulin B:9-23 TCR transgenic T cells
Excerpt: A key feature of the adaptive immune response is the ability of antigen-specific T cells to rapidly proliferate following antigenic-stimulation. Assays to assess the proliferative activity of antigen-specific T cells are a core tool to allow for evaluation of TCR- and MHC-binding properties based on the growth rate of the T cell populations after stimulation with a defined amount of antigen. A historically established assay is the detection of tritiated thymidine ^3H uptake. Therefore CD4+ T-cells from Rag def. NOD mice expressing a transgenic TCR for the a peptide of interest (e.g., Insulin B 9:23 peptide) are isolated by the use of a magnetic bead separation approach. Purified CD11^+DCs from normal NOD mice are used as antigen-presenting cells and irradiated. To induce proliferation of antigen-specific CD4^+ T cells, co-cultures are set up with naïve Insulin-specific CD4^+ T cells in 200 μl RPMI1640 medium supplemented with 10% (vol/vol) FCS in 96-well round-bottomed plates. Soluble peptides (e.g., natural InsulinB9:23 peptide) or mimetopes (e.g., Insulin mimetopes) are added to the cultures in various concentration (10 μg/ml to 0.01 μg/ml). Analysis of proliferation of antigen-specific T cells is performed by incorporation of ^3H-thymidine added for the last 12 hours of a 70 hours culture period followed by scintillation counting. […]

[3] = system: T cells with a specific transgenic TCR for the K^d54-68 peptide; settings: cited from earlier work
BDC2.5 T cells = settings: cited from earlier work
IAg^7 [4] = settings: cited from earlier work
NOD mice = assay: prevention of spontaneous diabetes in NOD mice; assay type: in vivo, mouse; settings: injection into young NOD mice
Excerpt: The inventors have been successful in inducing HY-specific Treg from naIve T cells in wt female B6 mice that were infused with HY-peptide and visualized with HY-peptide, class II tetramers (1). However, a similar approach to prevent diabetes in NOD mice by injecting insulin B:9-23 peptide into young NOD mice failed.
as §1, with “TCR. The inventors then studied the impact of these insulin-derived mimetopes in young NOD mice on diabetes development via subimmunogenic peptide delivery using either newly designed DEC205 peptide fusion antibodies (see description below) or peptide-infusing mini-osmotic pumps.” for “TCR.”

In the case of CO[C@H]1C[C@@H]2CC[C@@H](C)[C@@](O)(O2)C(=O)C(=O)N2CCCC[C@H]2C(=O)O[C@H]([C@H](C)C[C@@H]2CC[C@@H](OCCO)[C@H](OC)C2)CC(=O)[C@H](C)/C=C(\C)[C@@H](O)[C@@H](OC)C(=O)[C@H](C)C[C@H](C)/C=C/C=C/C=C/1C [Everolimus], the “frequency of newly generated HA-specific Foxp3+ Tregs” value [1] is reported as “substantially increases”.
For “Act-11 MBP: SEQ ID NO: 8, Ac-ASQKRPSQRHG; acetylated N-terminal myelin basic protein epitope”, the epitope strength (IAu) is listed as “weak epitope”.
In the case of “InsMim3 peptide mimetope: SEQ ID NO: 2, VEALYLVCGEEG; insulin mimetope, p9 Arginine exchanged to Glutamic acid (InsMim3 peptide mimetope)”, the “MHC binding compared with natural Insulin B:9-23 peptide” value (IAg^7 [2]) is reported as “enhanced MHC binding” and the “stimulation of T cells compared with natural Insulin B:9-23 peptide” value (NOD InsB:9-23 Tg T cells) is reported as “better stimulation of T cells”.
For “K^d54-68 peptide: SEQ ID NO: 6, QEGPEYWEEQTQRAK; MHC class I derived processed peptide presented by IAb (Kd 54-68 peptide)”, the agonist strength ([3]; MHC-derived transplantation antigen) is listed as “weak agonist” and the “proliferation of specific TCR transgenic T cells” value ([3]; dendritic cells pulsed with peptide) is listed as “not able to stimulate the proliferation”.
In the case of “WE14: SEQ ID NO: 4, WSRMDQLAKELTAE; naturally processed from Chromogranin A (WE14 peptide)”, the “stimulation of BDC2.5 T cells” value (BDC2.5 T cells) is given as “poor stimulation” and the “binding to IAg^7 (MHC-binding)” value (IAg^7 [4]) is given as “weakly”.
In the case of “natural Insulin B:9-23 peptide: SEQ ID NO: 1, SHLVEALYLVCGERG; natural peptide associated with Type I diabetes (Insulin B peptide)”, the “binding to IAg^7 (MHC-binding)” value (IAg^7 [4]) is given as “poor affinity” and the prevention of diabetes (NOD mice) is given as “failed”.
For “pS3 peptide: SEQ ID NO: 5, RLGLWVRME; strong stimulating mimetope of WE14 (pS3 peptide mimetope)”, the “stimulation of BDC2.5 T cells” value (BDC2.5 T cells) is given as “strong stimulating mimetope” and the “binding to IAg^7 (MHC-binding)” value (IAg^7 [4]) is given as “improved MHC-binding”.
